In US10835500B2, “Medicament for accelerated wound healing” (Symrise AG, priority 2014, dated 2020):
“Also recorded” adds a separate entry of the source.

How the values were obtained:
primary keratinocytes = assay: Calcium imaging in primary keratinocytes; type: cell-based, human; details: primary keratinocytes; for calcium signals on repeated stimulation: repeated application (500 μM in FIG. 9)
From the text: The Sandalore®-induced signal cascade in HaCaT cells and primary keratinocytes was pharmacologically characterized using the calcium imaging technique and specific blockers of signal cascade proteins. An investigation was first conducted in order to determine whether the calcium signals are caused by calcium inflow from the extracellular space. For this purpose, a calcium-free extracellular solution was used with a calcium chelator (EGTA) added. […] In order to investigate the role of adenylyl cyclase, the specific blockers SQ-22536 and MDL-12330A were used. […] The efficacy of the blockers was tested in this case with histamine, which activated the PLC signalling pathway (FIG. 11c).
Effect of the OR2AT4 ligand Sandalore® on intracellular calcium concentration of cultivated keratinocytes. […] 100 μM of ATP was used at the end of each measurement as a positive control stimulus. Right: Quantitative evaluation of calcium signals in 4-time application of Sandalore® (500 μM). Shown are the mean values of the individual applications including standard error. Mann-Whitney U test. *: p<0.05. C) and D): dose-dependent activation of HaCaT cells in calcium imaging experiments. Shown are the mean amplitudes including standard error at various concentrations in the first (C) and fourth (D) Sandalore® application. Number of cells measured: 0.0125 mM (39), 0.025 mM (30), 0.1 mM (46), 0.5 mM (34), 1 mM (63), 2 mM (41), 10 mM (36).
A) Representative calcium imaging traces of HaCaT cells (left) and primary keratinocytes (right) incubated with the gap junction blocker 1-octanol (500 μM) and then repeatedly stimulated with Sandalore® (500 μM, horizontal bars) (blue trace). […] 100 μM of ATP was used at the end of each measurement as a positive control stimulus. Quantitative evaluation of HaCaT cells (B) and primary keratinocytes (C) incubated with the gap junction blockers 1-octanol (500 μM) or carbenoxolone (10 μM) and then repeatedly stimulated with Sandalore® (500 μM) or Lyral (1 mM) in calcium imaging experiments. Shown are the mean values of the individual applications including standard error relative to the control measurements (Sandalore® application without blocker). Mann-Whitney U test. Number of cells measured: Sandalore®+1-octanol (HaCaT (110), keratinocytes (26)); Sandalore®+carbenoxolone: HaCaT (74); Lyral+carbenoxolone: HaCaT (43). ***: p<0.001.
Pharmacological characterization of Sandalore®-induced signal cascade in human keratinocytes. A)-D). Shown are representative calcium imaging traces of primary keratinocytes in the presence of a blocker (blue). The horizontal bars correspond to the application times. 100 μM of ATP was used at the end of each measurement as a positive control stimulus. A) Measurement with calcium-free extracellular solution (+10 mM EGTA). B) Measurement with the adenylyl cyclase blocker SQ-22536 (100 μM). C) Use of the phospholipase-C blocker U-73122 (10 μM). 100 μM of histamine was taken as a positive control. D) Measurement with the CNG channel blocker L-cis-diltiazem (150 μM). E) Overview of pharmacological measurement of HaCaT cells and primary keratinocytes (Kera). The mean amplitudes relative to the control measurements (dashed line) are indicated. MDL-12330A (40 μM). EGTA: calcium-free Ringer (HaCaT n=46, Kera n=52), SQ: SQ-22536 (HaCaT n=60, Kera n=26), MDL: MDL-12330A (HaCaT n=69, Kera n=24), U-73122 (HaCaT n=41, Kera n=25), L-cis-D.: L-cis-diltiazem (HaCaT n=41, Kera n=25). Mann-Whitney U test. ***: p<0.001. F) Determination of the cAMP contents of HaCaT cells after stimulation with Sandalore® by means of cAMP-Glo™ assays. The dots show the mean cAMP content including standard error after 10-minute Sandalore® stimulation (1 μM-10,000 μM). Significance was determined between HaCaT cells stimulated with Sandalore® and stimulated with an equivalent volume of DMSO (0.2%). Kruskal-Wallis Test with multiple comparison; n=3 experiments. *: p<0.05.

HaCaT cells = assay: Proliferation assay (CyQuant) on HaCaT cells; type: cell-based, human
Description: It was next investigated whether Sandalore® has an effect on the growth behavior of skin cells. For this purpose, HaCaT cells were again stimulated for five days with Sandalore®, and cell count determination was carried out by means of a proliferation assay. […] In order to verify that this increase in proliferation is induced via activation of OR2AT4, HaCaT cells were transfected with siRNA or scRNA respectively, and the proliferation assay was repeated.
In addition, the cell count was determined after costimulation (1:1) by Sandalore® (500 μM) with the antagonists Oxyphenylon (500 μM) or Phenirat (500 μM). […] The effect was significant for Oxyphenylon.
Effect of Sandalore® long-term stimulation on morphology, growth, and migration processes in keratinocytes. A) Phase contrast image and PI stains of HaCaT cells and primary keratinocytes after stimulation with Sandalore® (500 μM) or 0.1% DMSO (control) for five days. On positive PI staining, the cell nuclei are stained red. Scale: 100 μm. B) Evaluation of the proliferation assay carried out with the CyQuant Cell Proliferation Kit on HaCaT cells after 5-day stimulation with 500 μM of Sandalore® or 0.1% DMSO (control). For the RNA interference experiments, the cells were transfected with siRNA or scRNA on the day before Sandalore® stimulation. Shown is the mean cell count including standard error relative to untreated cells. Mann-Whitney U test; n=3 experiments. *: p<0.05; **: p<0.01. S: Sandalore. C) Agarose assay for determination of migration of HaCaT cells. Top: Transmitted light images of HaCaT cells that have migrated in the direction of Sandalore® (500 μM) or 0.1% DMSO. The growth margin of the cells was surrounded in black. Scale: 250 μm. Bottom: Evaluation of the proliferation assay. The longest path traversed by the cells and the overgrown area were measured and compared to the control (0.1% DMSO). Paired two-sided T test. Mean values including standard error; n=4 experiments. **: p<0.01; ***: p<0.001.

Compound	calcium signals on repeated stimulation (primary keratinocytes)	increase of proliferation compared to the control (0.1% DMSO) (HaCaT cells; 5-day stimulation, 500 μM) [%]	share of cells repeatedly stimulated (primary keratinocytes; calcium imaging)	calcium signals on repeated stimulation (primary keratinocytes; listed as Sandalore)	effect of antagonist alone on proliferation (HaCaT cells; antagonist alone)	proliferation after costimulation with Sandalore (HaCaT cells; costimulation 1:1, Sandalore 500 μM + antagonist 500 μM)
CC1=CCC(CCC(C)CO)C1(C)C (stereo not shown) [Brahmanol®]	significant sensitization	–	–	–	–	–
CC1=CCC(CCC(C)C(C)O)C1(C)C (stereo not shown) [Sandalore®]	significant sensitization; also recorded: induced calcium signals	33	80-90%	significant sensitization	–	–
CC(=O)CCc1ccc(O)cc1 [Oxyphenylon]	–	–	–	–	no significant effect	proliferation was reduced. The effect was significant
